From paper PMC11345841, “Exploring 2-Sulfonylpyrimidine Warheads as Acrylamide Surrogates for Targeted Covalent Inhibition: A BTK Story” (Journal of Medicinal Chemistry, 2024)
Like-named read-outs stand apart in the source and are kept apart here.

Legend:
Test in all cases: KINOMEscan ScanTK
Assay type in all cases: binding
ITK = target: T1, ITK (Homo sapiens, UniProt Q08881); settings: for difference in %Control versus compound Ib at 1 µM / remaining binding at 1 µM: ITK; for inhibition at 1 µM: ScanTK
T1 construct: purchased Eurofins DiscoverX KINOMEscan (scanTK)
T1 sequence (Q08881 1-620): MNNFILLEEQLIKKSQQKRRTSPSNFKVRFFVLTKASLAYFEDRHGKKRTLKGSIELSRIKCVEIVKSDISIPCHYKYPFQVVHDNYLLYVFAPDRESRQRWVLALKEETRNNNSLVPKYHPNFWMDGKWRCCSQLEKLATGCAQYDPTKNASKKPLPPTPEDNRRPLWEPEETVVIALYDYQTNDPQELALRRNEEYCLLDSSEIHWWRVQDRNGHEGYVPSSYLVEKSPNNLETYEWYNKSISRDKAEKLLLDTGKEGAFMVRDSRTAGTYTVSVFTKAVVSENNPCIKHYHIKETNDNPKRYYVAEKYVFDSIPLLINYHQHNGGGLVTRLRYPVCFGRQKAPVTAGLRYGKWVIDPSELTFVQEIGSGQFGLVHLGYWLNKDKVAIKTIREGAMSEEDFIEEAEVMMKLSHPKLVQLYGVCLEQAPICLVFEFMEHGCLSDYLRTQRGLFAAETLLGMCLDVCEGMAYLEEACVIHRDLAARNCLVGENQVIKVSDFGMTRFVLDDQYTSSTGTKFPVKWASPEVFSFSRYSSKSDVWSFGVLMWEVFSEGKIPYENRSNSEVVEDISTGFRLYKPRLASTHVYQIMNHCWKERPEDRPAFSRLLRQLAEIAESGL

[1] = target: T2, ABL1(E255K)-phosphorylated (Homo sapiens, UniProt P00519, E255K); settings: for difference in %Control from reference Ib at 1 µM: read-out: % difference (compound - Ib %Control)
T2 construct: purchased Eurofins DiscoverX KINOMEscan (scanTK)

FAK = target: T3, FAK (Homo sapiens, UniProt Q05397)
T3 construct: purchased Eurofins DiscoverX KINOMEscan (scanTK)

[2] = target: T4, TYK2(JH2domain-pseudokinase) (Homo sapiens, UniProt P29597); settings: for difference in %Control versus Ib at 1 µM: read-out: % difference (compound - Ib %Control)
T4 construct: TYK2(JH2domain-pseudokinase); purchased Eurofins DiscoverX KINOMEscan (scanTK)

[3] = target: T5, TYK2(JH1domain-catalytic) (Homo sapiens, UniProt P29597)
T5 construct: TYK2(JH1domain-catalytic); purchased Eurofins DiscoverX KINOMEscan (scanTK)
T5 sequence (P29597 888-1187 limits assumed): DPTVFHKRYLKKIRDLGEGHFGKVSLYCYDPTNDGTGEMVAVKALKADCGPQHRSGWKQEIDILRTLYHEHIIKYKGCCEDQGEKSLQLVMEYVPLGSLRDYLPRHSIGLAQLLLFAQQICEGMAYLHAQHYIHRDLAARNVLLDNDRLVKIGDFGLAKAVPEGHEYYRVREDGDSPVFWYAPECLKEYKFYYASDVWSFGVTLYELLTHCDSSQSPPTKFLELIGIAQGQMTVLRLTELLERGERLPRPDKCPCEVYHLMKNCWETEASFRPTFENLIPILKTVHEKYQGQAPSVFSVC

EPHB4 = target: T6, EPHB4 (Homo sapiens, UniProt P54760)
T6 construct: purchased Eurofins DiscoverX KINOMEscan (scanTK)
T6 sequence (P54760 16-987): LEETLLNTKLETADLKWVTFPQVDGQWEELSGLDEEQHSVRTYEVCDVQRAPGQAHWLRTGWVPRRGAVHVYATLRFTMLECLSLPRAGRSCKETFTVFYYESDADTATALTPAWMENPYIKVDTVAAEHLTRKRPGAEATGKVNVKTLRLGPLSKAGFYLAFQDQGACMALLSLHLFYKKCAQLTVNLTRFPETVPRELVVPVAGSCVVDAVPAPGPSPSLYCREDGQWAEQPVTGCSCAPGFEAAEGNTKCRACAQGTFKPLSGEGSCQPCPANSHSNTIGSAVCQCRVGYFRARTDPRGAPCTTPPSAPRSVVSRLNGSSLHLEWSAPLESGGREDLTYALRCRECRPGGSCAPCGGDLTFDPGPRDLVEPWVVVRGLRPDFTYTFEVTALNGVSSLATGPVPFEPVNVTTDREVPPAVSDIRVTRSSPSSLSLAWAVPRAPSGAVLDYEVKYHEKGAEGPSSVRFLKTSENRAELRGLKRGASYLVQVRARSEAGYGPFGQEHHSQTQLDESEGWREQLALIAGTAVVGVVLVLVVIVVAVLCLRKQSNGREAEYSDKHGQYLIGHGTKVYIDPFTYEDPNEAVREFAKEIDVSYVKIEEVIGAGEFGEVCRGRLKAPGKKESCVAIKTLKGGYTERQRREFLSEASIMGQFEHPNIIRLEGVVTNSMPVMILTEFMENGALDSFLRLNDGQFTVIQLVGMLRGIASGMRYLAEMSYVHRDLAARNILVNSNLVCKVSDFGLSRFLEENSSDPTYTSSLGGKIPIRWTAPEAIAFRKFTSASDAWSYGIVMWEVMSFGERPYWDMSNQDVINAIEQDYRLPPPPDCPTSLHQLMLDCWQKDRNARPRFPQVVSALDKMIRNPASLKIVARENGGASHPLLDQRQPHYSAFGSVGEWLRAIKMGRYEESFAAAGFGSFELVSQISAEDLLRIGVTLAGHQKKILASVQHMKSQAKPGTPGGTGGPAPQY

MET = target: T7, MET (Homo sapiens, UniProt P08581)
T7 construct: purchased Eurofins DiscoverX KINOMEscan (scanTK)
T7 sequence (P08581 25-1390): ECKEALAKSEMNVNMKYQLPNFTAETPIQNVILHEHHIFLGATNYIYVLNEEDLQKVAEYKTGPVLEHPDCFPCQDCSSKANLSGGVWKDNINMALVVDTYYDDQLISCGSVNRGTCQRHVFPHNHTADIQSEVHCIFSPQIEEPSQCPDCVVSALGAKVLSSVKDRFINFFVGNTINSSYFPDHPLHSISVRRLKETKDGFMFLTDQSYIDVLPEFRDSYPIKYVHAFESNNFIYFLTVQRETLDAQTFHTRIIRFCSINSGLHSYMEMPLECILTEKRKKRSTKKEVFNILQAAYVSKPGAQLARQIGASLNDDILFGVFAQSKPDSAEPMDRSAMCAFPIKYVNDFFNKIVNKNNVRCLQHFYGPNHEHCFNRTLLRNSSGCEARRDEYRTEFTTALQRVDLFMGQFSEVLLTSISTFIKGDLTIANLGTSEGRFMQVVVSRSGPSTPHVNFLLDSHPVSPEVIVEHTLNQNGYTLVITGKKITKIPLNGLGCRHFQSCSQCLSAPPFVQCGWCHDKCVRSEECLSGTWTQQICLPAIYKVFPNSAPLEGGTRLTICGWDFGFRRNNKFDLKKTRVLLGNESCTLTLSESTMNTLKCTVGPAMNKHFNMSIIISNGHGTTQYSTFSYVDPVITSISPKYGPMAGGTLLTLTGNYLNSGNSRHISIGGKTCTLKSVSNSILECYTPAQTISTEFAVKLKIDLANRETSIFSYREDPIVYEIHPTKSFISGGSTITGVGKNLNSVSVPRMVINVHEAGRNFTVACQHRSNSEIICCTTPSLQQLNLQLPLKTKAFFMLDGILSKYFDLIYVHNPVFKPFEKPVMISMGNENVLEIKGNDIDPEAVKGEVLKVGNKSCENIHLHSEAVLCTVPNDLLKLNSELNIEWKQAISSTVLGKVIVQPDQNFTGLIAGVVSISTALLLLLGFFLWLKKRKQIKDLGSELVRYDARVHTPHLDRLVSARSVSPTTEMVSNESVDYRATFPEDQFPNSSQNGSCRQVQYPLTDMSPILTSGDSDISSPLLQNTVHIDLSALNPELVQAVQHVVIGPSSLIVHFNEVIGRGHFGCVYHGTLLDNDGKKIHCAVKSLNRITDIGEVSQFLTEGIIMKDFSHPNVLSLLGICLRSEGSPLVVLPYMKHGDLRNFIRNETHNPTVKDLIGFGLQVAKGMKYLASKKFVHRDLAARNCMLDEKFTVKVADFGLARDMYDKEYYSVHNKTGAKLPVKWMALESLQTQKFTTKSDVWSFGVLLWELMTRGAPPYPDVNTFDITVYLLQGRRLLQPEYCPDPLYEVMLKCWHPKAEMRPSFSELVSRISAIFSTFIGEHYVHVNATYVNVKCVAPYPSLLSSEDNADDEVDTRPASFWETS

FGR = target: T8, FGR (Homo sapiens, UniProt P09769)
T8 construct: purchased Eurofins DiscoverX KINOMEscan (scanTK)
T8 sequence (P09769 whole entry): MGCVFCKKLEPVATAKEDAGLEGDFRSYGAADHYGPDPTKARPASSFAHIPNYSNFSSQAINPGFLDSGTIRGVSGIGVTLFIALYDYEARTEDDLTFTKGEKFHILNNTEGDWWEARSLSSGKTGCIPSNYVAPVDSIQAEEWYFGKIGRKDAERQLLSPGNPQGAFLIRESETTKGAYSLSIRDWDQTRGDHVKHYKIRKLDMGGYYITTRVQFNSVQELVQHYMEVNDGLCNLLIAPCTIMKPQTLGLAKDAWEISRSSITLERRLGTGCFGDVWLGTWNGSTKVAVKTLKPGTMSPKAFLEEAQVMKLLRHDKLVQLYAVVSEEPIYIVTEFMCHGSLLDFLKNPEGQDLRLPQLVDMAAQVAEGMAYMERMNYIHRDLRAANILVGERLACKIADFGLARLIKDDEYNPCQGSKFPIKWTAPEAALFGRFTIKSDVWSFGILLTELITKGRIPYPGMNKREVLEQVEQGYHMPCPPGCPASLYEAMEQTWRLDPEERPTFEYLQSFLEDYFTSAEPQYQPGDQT

ALK(C1156Y) = target: T9, ALK(C1156Y) (Homo sapiens, UniProt Q9UM73, C1156Y)
T9 construct: purchased Eurofins DiscoverX KINOMEscan (scanTK)
T9 sequence (Q9UM73 19-1620 C1156Y): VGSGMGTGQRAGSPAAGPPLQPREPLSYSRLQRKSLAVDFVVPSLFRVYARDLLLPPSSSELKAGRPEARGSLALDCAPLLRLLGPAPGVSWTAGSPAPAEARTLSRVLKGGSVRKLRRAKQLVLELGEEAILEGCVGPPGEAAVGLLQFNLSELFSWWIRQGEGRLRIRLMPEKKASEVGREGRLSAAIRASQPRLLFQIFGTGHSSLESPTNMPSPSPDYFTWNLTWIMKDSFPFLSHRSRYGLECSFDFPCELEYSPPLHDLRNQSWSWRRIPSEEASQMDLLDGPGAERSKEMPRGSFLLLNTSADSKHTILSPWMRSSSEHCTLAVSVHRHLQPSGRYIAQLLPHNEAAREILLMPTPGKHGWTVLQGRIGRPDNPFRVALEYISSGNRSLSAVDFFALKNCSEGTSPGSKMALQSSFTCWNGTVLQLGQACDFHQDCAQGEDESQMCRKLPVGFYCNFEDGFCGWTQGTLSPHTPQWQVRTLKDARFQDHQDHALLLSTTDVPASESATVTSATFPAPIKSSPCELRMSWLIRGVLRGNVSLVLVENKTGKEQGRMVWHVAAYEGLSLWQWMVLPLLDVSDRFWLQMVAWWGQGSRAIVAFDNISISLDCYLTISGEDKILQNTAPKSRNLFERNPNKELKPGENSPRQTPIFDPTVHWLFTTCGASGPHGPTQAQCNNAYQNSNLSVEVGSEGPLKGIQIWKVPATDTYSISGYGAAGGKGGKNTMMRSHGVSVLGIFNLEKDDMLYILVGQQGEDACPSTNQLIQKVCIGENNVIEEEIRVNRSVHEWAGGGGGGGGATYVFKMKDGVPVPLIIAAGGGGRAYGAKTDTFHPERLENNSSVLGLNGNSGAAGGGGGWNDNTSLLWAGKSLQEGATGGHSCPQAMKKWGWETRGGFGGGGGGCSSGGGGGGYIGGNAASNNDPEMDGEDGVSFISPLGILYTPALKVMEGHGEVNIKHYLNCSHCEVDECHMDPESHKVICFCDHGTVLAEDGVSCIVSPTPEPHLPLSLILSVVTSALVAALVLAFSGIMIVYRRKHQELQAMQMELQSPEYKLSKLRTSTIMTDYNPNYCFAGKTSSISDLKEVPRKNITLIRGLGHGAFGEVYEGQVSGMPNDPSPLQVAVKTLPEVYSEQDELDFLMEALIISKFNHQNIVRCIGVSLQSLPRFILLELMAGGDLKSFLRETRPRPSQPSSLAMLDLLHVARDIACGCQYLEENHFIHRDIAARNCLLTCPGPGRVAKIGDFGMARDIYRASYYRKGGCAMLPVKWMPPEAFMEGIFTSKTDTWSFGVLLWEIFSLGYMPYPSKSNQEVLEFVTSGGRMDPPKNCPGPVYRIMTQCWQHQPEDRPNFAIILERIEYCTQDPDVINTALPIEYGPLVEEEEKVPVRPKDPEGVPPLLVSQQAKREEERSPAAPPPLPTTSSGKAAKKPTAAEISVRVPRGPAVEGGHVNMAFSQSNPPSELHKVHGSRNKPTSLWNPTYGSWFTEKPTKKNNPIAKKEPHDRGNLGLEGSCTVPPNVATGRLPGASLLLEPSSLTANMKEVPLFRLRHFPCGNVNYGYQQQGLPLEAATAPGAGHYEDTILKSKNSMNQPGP

[4] = target: T10, ABL1(F317L)-phosphorylated (Homo sapiens, UniProt P00519, F317L)
T10 construct: purchased Eurofins DiscoverX KINOMEscan (scanTK)

ALK(L1196M) = target: T11, ALK(L1196M) (Homo sapiens, UniProt Q9UM73, L1196M)
T11 construct: purchased Eurofins DiscoverX KINOMEscan (scanTK)
T11 sequence (Q9UM73 19-1620 L1196M): as the sequence (Q9UM73 19-1620 C1156Y) above, with Y1138C, L1178M counted along it

MET(Y1235D) = target: T12, MET(Y1235D) (Homo sapiens, UniProt P08581, Y1235D)
T12 construct: purchased Eurofins DiscoverX KINOMEscan (scanTK)
T12 sequence (P08581 25-1390 Y1235D): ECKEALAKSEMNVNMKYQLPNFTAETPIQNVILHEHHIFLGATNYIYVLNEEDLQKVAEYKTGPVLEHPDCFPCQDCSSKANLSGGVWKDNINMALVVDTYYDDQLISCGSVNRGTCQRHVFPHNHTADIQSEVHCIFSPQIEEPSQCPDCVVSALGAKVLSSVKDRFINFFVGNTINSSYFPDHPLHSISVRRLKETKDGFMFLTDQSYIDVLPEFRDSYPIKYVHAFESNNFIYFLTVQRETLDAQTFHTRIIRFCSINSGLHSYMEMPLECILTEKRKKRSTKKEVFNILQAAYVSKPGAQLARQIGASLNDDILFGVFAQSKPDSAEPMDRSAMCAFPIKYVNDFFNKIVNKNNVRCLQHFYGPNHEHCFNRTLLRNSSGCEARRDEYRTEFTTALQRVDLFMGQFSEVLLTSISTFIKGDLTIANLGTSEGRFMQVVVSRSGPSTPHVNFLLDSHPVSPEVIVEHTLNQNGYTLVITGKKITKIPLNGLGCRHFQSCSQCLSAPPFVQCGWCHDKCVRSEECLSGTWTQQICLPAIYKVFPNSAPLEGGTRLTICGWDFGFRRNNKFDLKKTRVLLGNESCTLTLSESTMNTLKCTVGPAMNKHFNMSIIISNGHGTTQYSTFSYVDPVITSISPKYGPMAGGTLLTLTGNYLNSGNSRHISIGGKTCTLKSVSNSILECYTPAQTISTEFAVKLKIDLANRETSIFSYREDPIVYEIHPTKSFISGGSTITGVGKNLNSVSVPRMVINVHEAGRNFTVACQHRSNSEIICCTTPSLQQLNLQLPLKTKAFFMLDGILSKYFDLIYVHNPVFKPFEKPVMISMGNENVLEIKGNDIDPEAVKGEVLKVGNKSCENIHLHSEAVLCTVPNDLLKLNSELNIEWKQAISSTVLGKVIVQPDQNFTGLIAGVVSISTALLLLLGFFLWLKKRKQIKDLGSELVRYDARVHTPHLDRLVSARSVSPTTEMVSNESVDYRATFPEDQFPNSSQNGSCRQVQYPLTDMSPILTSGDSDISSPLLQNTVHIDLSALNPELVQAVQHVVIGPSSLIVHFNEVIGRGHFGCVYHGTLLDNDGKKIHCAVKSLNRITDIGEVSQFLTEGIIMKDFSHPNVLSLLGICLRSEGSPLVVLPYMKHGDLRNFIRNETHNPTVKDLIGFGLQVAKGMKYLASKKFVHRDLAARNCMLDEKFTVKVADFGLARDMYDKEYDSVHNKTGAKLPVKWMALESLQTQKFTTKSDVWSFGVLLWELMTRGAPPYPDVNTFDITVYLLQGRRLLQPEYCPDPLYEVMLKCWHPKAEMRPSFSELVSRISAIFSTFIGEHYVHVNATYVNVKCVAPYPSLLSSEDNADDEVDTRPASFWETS

Row | Structure (SMILES) | difference in %Control versus compound Ib at 1 µM (ITK; @1000nM) [%] | remaining binding at 1 µM (ITK; @1000nM, read-out: %Control) [%] | remaining binding at 1 µM (ITK; read-out: %Control @1000nM) [%] | inhibition at 1 µM (ITK) [%] | difference in %Control from reference Ib at 1 µM ([1]; @1000nM) [%] | remaining binding at 1 µM ([1]; @1000nM, read-out: %Control) [%] | remaining binding at 1 µM ([1]; read-out: %Control @1000nM) [%] | difference in %Control versus compound Ib at 1 µM (FAK; @1000nM) [%] | remaining binding at 1 µM (FAK; @1000nM, read-out: %Control) [%] | remaining binding at 1 µM (FAK; read-out: %Control @1000nM) [%] | difference in %Control versus Ib at 1 µM ([2]; @1000nM) [%] | remaining binding at 1 µM ([2]; @1000nM, read-out: %Control) [%] | remaining binding at 1 µM ([2]; read-out: %Control @1000nM) [%] | remaining binding at 1 µM ([3]; @1000nM, read-out: %Control) [%] | remaining binding at 1 µM ([3]; read-out: %Control @1000nM) [%] | difference in %Control from compound Ib at 1 µM (EPHB4; @1000nM) [%] | remaining binding at 1 µM (EPHB4; @1000nM, read-out: %Control) [%] | remaining binding at 1 µM (EPHB4; read-out: %Control @1000nM) [%] | remaining binding at 1 µM (MET; @1000nM, read-out: %Control) [%] | remaining binding at 1 µM (MET; read-out: %Control @1000nM) [%] | other results
1 | CCOC(=O)c1cnc(S(C)(=O)=O)nc1N1CCC[C@@H](n2nc(-c3ccc(Oc4ccccc4)cc3)c3c(N)ncnc32)C1 [Compound 8c, Ethyl (R)-4-(3-(4-Amino-3-(4-phenoxyphenyl)-1H-pyrazolo[3,4-d]pyrimidin-1-yl)piperidin-1-yl)-2-(methylsulfonyl)pyrimidine-5-carboxylate] | 73 | 88 | 88 | 12 | 17 | 81 | 81 | -4 | 96 | 96 | 12 | 100 | 100 | 100 | 100 | -14 | 86 | 86 | 100 | 100 | difference in %Control versus compound Ib at 1 µM (FGR; @1000nM): 13.7%; remaining binding at 1 µM (FGR; @1000nM, read-out: %Control): 19%; remaining binding at 1 µM (FGR; read-out: %Control @1000nM): 19%; difference in %Control versus compound Ib at 1 µM (ALK(C1156Y); @1000nM): -8%; remaining binding at 1 µM (ALK(C1156Y); @1000nM, read-out: %Control): 90%; remaining binding at 1 µM (ALK(C1156Y); read-out: %Control @1000nM): 90%; difference in %Control from compound Ib at 1 µM ([4]; @1000nM): 49%; remaining binding at 1 µM ([4]; @1000nM, read-out: %Control): 86%; remaining binding at 1 µM ([4]; read-out: %Control @1000nM): 86%; difference in % of control vs compound Ib at 1 µM (ALK(L1196M); @1000nM): -23%; remaining binding at 1 µM (ALK(L1196M); @1000nM, read-out: %Control): 77%; remaining binding at 1 µM (ALK(L1196M); read-out: %Control @1000nM): 77%; remaining binding at 1 µM (MET(Y1235D); @1000nM, read-out: %Control): 100%; remaining binding at 1 µM (MET(Y1235D); read-out: %Control @1000nM): 100%
2 | CNC(=O)c1cnc(S(C)(=O)=O)nc1N1CCCC(n2nc(-c3ccc(Oc4ccccc4)cc3)c3c(N)ncnc32)C1 (centres unmarked) [Compound 8d, 4-(3-(4-Amino-3-(4-phenoxyphenyl)-1H-pyrazolo[3,4-d]pyrimidin-1-yl)piperidin-1-yl)-N-methyl-2-(methylsulfonyl)pyrimidine-5-carboxamide] | 66 | 81 | 81 | 19 | 26 | 90 | 90 | 0 | 100 | 100 | 8 | 96 | 96 | 100 | 100 | 0 | 100 | 100 | 100 | 100 | difference in %Control versus compound Ib at 1 µM (FGR; @1000nM): 10.7%; remaining binding at 1 µM (FGR; @1000nM, read-out: %Control): 16%; remaining binding at 1 µM (FGR; read-out: %Control @1000nM): 16%; difference in %Control versus compound Ib at 1 µM (ALK(C1156Y); @1000nM): -10%; remaining binding at 1 µM (ALK(C1156Y); @1000nM, read-out: %Control): 88%; remaining binding at 1 µM (ALK(C1156Y); read-out: %Control @1000nM): 88%; difference in %Control from compound Ib at 1 µM ([4]; @1000nM): 39%; remaining binding at 1 µM ([4]; @1000nM, read-out: %Control): 76%; remaining binding at 1 µM ([4]; read-out: %Control @1000nM): 76%; difference in % of control vs compound Ib at 1 µM (ALK(L1196M); @1000nM): -21%; remaining binding at 1 µM (ALK(L1196M); @1000nM, read-out: %Control): 79%; remaining binding at 1 µM (ALK(L1196M); read-out: %Control @1000nM): 79%; remaining binding at 1 µM (MET(Y1235D); @1000nM, read-out: %Control): 91%; remaining binding at 1 µM (MET(Y1235D); read-out: %Control @1000nM): 91%
